Data published in patent publication US8492371B2, “Compounds as cannabinoid receptor ligands” (priority 2009, dated 2013).
Like-named read-outs stand apart in the source and are kept apart here.

Experiments:
rat CB2 receptors = target: T1, rat CB2 receptors (Rattus norvegicus, UniProt Q9QZN9); assay: Rat CB2 radioligand binding assay ([3H]CP-55,940 competition)
T1 construct: expressed in transfected cells; host or cells: HEK293
T1 sequence (Q9QZN9 1-360): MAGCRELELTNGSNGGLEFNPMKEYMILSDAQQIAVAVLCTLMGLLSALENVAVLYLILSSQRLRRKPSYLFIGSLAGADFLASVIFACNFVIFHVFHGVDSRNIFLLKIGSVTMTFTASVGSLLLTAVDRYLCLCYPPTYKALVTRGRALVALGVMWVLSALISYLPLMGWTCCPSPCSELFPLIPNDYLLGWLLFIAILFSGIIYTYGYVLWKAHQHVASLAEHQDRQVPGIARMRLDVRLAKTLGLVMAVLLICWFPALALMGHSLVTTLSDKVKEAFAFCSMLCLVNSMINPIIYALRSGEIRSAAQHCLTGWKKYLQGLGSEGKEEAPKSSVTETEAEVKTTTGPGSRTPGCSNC
Procedure: HEK293 cells stably expressing rat CB2 receptors were grown until a confluent monolayer was formed. Briefly, the cells were harvested and homogenized in TE buffer (50 mM Tris-HCl, 1 mM MgCl2, and 1 mM EDTA) using a polytron for 2×10 second bursts in the presence of protease inhibitors, followed by centrifugation at 45,000×g for 20 minutes. The final membrane pellet was re-homogenized in storage buffer (50 mM Tris-HCl, 1 mM MgCl2, and 1 mM EDTA and 10% sucrose) and frozen at −78° C. until used. Saturation binding reactions were initiated by the addition of membrane preparation (protein concentration of 20 μg/well for rat CB2) into wells of a deep well plate containing [^3H]CP-55,940 (120 Ci/mmol, a nonselective CB agonist commercially available from Tocris) in assay buffer (50 mM Tris, 2.5 mM EDTA, 5 mM MgCl2, and 0.5 mg/mL fatty acid free BSA, pH 7.4). After 45 min incubation at 30° C., binding reaction was terminated by the addition of 300 μL/well of cold assay buffer followed by rapid vacuum filtration through a UniFilter-96 GF/C filter plates (pre-soaked in 1 mg/mL BSA for 2 hours). The bound activity was counted in a TopCount using Microscint-20. Saturation experiments were conducted with twelve concentrations of [^3H]CP-55,940 ranging from 0.01 to 8 nM. Competition experiments were conducted with 0.5 nM [^3H]CP-55,940 and five concentrations of displacing ligands selected from the range of 0.01 nM to […] addition of 10 μM unlabeled CP-55,940 (Tocris, Ellisville, Mo.) was used to assess nonspecific binding.

human CB2 receptors = target: T2, human CB2 receptors (Homo sapiens, UniProt P34972); assay: Human CB2 radioligand binding assay ([3H]CP-55,940 competition)
T2 construct: expressed in transfected cells; host or cells: HEK293
T2 sequence (P34972 whole entry): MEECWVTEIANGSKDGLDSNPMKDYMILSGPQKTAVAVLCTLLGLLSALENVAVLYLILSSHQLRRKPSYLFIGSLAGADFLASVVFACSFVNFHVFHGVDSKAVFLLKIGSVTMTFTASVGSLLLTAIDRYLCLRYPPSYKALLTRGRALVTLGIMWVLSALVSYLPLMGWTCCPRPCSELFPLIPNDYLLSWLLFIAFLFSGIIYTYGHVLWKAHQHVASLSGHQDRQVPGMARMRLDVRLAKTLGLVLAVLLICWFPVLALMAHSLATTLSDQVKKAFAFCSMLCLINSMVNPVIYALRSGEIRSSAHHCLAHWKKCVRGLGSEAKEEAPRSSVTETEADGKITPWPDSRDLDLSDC
Procedure: The CB1 and CB2 radioligand binding assays described herein are utilized to determine the selectivity of compounds of the present invention for binding to CB2 relative to CB1 receptors.
HEK293 cells stably expressing human CB2 receptors were grown until a confluent monolayer was formed. Briefly, the cells were harvested and homogenized in TE buffer (50 mM Tris-HCl, 1 mM MgCl2, and 1 mM EDTA) using a polytron for 2×10 second bursts in the presence of protease inhibitors, followed by centrifugation at 45,000×g for 20 minutes. The final membrane pellet was re-homogenized in storage buffer (50 mM Tris-HCl, 1 mM MgCl2, and 1 mM EDTA and 10% sucrose) and frozen at −78° C. until used. Saturation binding reactions were initiated by the addition of membrane preparation (protein concentration of 5 μg/well for human CB2) into wells of a deep well plate containing ([^3H]CP-55,940 (120 Ci/mmol, a nonselective CB agonist commercially available from Tocris) in assay buffer (50 mM Tris, 2.5 mM EDTA, 5 mM MgCl2, and 0.5 mg/mL fatty acid free BSA, pH 7.4). After 90 min incubation at 30° C., binding reaction was terminated by the addition of 300 μL/well of cold assay buffer followed by rapid vacuum filtration through a UniFilter-96 GF/C filter plates (pre-soaked in 1 mg/mL BSA for 2 hours). The bound activity was counted in a TopCount using Microscint-20. Saturation experiments were conducted with twelve concentrations of [^3H]CP-55,940 ranging from 0.01 to 8 nM. Competition experiments were conducted with 0.5 nM [^3H]CP-55,940 and five concentrations of displacing ligands selected from the range of 0.01 nM to 10 μM. The addition of 10 μM unlabeled CP-55,940 (Tocris, Ellisville, Mo.) was used to assess nonspecific binding.

[1] = HEK293 membranes, 0.5 nM [3H]CP-55,940, read-out: human CB2 Ki

Structure (SMILES) | Ki (rat CB2 receptors) [µM] | Ki (human CB2 receptors) [µM] | Ki (human CB2 receptors; [1]) [µM]
COCCOc1ccc(Br)cc1C(=O)/N=c1\cc(C(C)(C)C)n(C)n1C[C@H]1CCCO1 [Example 58, 5-bromo-N-{(3E)-5-tert-butyl-1-methyl-2-[(2R)-tetrahydrofuran-2-ylmethyl]-1,2-dihydro-3H-pyrazol-3-ylidene}-2-(2-methoxyethoxy)benzamide] | 0.069 | 0.031 | 
COc1ccc(Cl)cc1C(=O)/N=c1\sc(C2(C(F)(F)F)CC2)nn1C[C@H]1CCCO1 [Example 1, 5-chloro-2-methoxy-N-[(2Z)-3-[(2R)-tetrahydrofuran-2-ylmethyl]-5-[1-(trifluoromethyl)cyclopropyl]-1,3,4-thiadiazol-2(3H)-ylidene]benzamide] | 0.0029 | 0.051 | 
Cn1c(C(C)(C)C)c/c(=N\C(=O)c2cc(C(F)(F)F)ccc2OCC2CC(=O)C2)n1C[C@H]1CCCO1 [Example 17, N-{(3E)-5-tert-butyl-1-methyl-2-[(2R)-tetrahydrofuran-2-ylmethyl]-1,2-dihydro-3H-pyrazol-3-ylidene}-2-[(3-oxocyclobutyl)methoxy]-5-(trifluoromethyl)benzamide] | 0.058 |  | 0.23
Cn1c(C(C)(C)C)c/c(=N\C(=O)c2cc(C(F)(F)F)ccc2NC(=O)OC(C)(C)C)n1C[C@H]1CCCO1 [Example 120, tert-butyl 2-[({(3E)-5-tert-butyl-1-methyl-2-[(2R)-tetrahydrofuran-2-ylmethyl]-1,2-dihydro-3H-pyrazol-3-ylidene}amino)carbonyl]-4-(trifluoromethyl)phenylcarbamate] | 0.0021 | 0.0017 | 
CN1CC[C@H](Oc2ccc(C(F)(F)F)cc2C(=O)/N=c2\sc(C(C)(C)C)nn2C[C@H]2CCCO2)C1 [Example 97, N-[(2Z)-5-tert-butyl-3-[(2R)-tetrahydrofuran-2-ylmethyl]-1,3,4-thiadiazol-2(3 H)-ylidene]-2-{[(3S)-1-methylpyrrolidin-3-yl]oxy}-5-(trifluoromethyl)benazmide] | 0.046 | 0.063 | 
COc1ccc(C(F)(F)F)cc1C(=O)/N=c1\oc(C(C)(C)C)cn1C[C@H]1CCCO1 [Example 66, N-[(2Z)-5-tert-butyl-3-[(2R)-tetrahydrofuran-2-ylmethyl]-1,3-oxazol-2(3 H)-ylidene]-2-methoxy-5-(trifluoromethyl)benzamide] | 0.0008 | 0.0021 | 
C=Cc1ccc(C(F)(F)F)cc1C(=O)/N=c1\cc(C(C)(C)C)n(C)n1C[C@H]1CCCO1 [Example 122, N-{(3E)-5-tert-butyl-1-methyl-2-[(2R)-tetrahydrofuran-2-ylmethyl]-1,2-dihydro-3H-pyrazol-3-ylidene}-5-(trifluoromethyl)-2-vinylbenzamide] | 0.0014 | 0.0082 | 
CCOc1ccccc1C(=O)/N=c1\sc(C2CC2)nn1CC1CCCO1 (centres unmarked) [Example 3, N-[(2Z)-5-cyclopropyl-3-(tetrahydrofuran-2-ylmethyl)-1,3,4-thiadiazol-2(3H)-ylidene]-2-ethoxybenzamide] | 0.071 |  | 0.114
CN(C)S(=O)(=O)Nc1ccc(C(F)(F)F)cc1C(=O)/N=c1\cc(C(C)(C)C)n(C)n1C[C@H]1CCCO1 [Example 121, N-{(3E)-5-tert-butyl-1-methyl-2-[(2R)-tetrahydrofuran-2-ylmethyl]-1,2-dihydro-3H-pyrazol-3-ylidene}-2-{[(dimethylamino)sulfonyl]amino}-5-(trifluoromethyl)benzamide] | 0.015 | 0.053 | 
CN1CC[C@H](Oc2ccc(C(F)(F)F)cc2C(=O)/N=c2\oc(C(C)(C)C)cn2C[C@H]2CCCO2)C1 [Example 98, N-[(2Z)-5-tert-butyl-3-[(2R)-tetrahydrofuran-2-ylmethyl]-1,3-oxazol-2(3 H)-ylidene]-2-{[(3S)-1-methylpyrrolidin-3-yl]oxy}-5-(trifluoromethyl)benzamide] | 0.088 |  | 0.261
COc1ccc(C(F)(F)F)cc1C(=O)/N=c1\cc(C(C)(C)C)ccn1C[C@H]1CCCO1 [Example 62, N-[(2E)-4-tert-butyl-[(2R)-tetrahydrofuran-2-ylmethyl]pyridin-2(1H)-ylidene]-2-methoxy-5-(trifluoromethyl)benzamide] | 0.004 | 0.02 | 
Cn1c(C(C)(C)C)c/c(=N\C(=O)c2cccc(C#N)c2)n1C[C@H]1CCCO1 [Example 130, N-{(3E)-5-tert-butyl-1-methyl-2-[(2R)-tetrahydrofuran-2-ylmethyl]-1,2-dihydro-3H-pyrazol-3-ylidene}-3-cyanobenzamide] | 0.017 | 0.072 | 
Cn1c(C(C)(C)C)c/c(=N\C(=O)c2cc(O)cc(C(F)(F)F)c2)n1C[C@H]1CCCO1 [Example 103, N-{(3E)-5-tert-butyl-1-methyl-2-[(2R)-tetrahydrofuran-2-ylmethyl]-1,2-dihydro-3H-pyrazol-3-ylidene}-3-hydroxy-5-(trifluoromethyl)benzamide] | 0.0044 | 0.016 | 
Cn1c(C(C)(C)C)c/c(=N\C(=O)c2cc(C(F)(F)F)ccc2N)n1C[C@H]1CCCO1 [Example 112, 2-amino-N-{(3E)-5-tert-butyl-1-methyl-2-[(2R)-tetrahydrofuran-2-ylmethyl]-1,2-dihydro-3H-pyrazol-3-ylidene}-5-(trifluoromethyl)benzamide] | 0.0024 | 0.0033 | 
Cn1c(C(C)(C)C)c/c(=N\C(=O)c2cc(N)cc(C(F)(F)F)c2)n1C[C@H]1CCCO1 [Example 107, 3-amino-N-{(3E)-5-tert-butyl-1-methyl-2-[(2R)-tetrahydrofuran-2-ylmethyl]-1,2-dihydro-3H-pyrazol-3-ylidene}-5-(trifluoromethyl)benzamide] | 0.0048 | 0.011 | 
Cn1c(C(C)(C)C)c/c(=N\C(=O)c2cc(C(F)(F)F)ccc2O)n1C[C@H]1CCCO1 [Example 24, N-{(3E)-5-tert-butyl-1-methyl-2-[(2R)-tetrahydrofuran-2-ylmethyl]-1,2-dihydro-3H-pyrazol-3-ylidene}-2-hydroxy-5-(trifluoromethyl)benzamide] | 0.029 |  | 0.26
CO[C@@H](C)COc1ccc(C(F)(F)F)cc1C(=O)/N=c1\cc(C(C)(C)C)n(C)n1C[C@H]1CCCO1 [Example 28, N-{(3E)-5-tert-butyl-1-methyl-2-[(2R)-tetrahydrofuran-2-ylmethyl]-1,2-dihydro-3H-pyrazol-3-ylidene}-2-{[(2S)-2-methoxypropyl]oxy}-5-(trifluoromethyl)benzamide] | 0.044 | 0.101 | 
Cn1c(C(C)(C)C)c/c(=N\C(=O)c2cc(C(F)(F)F)ccc2/C=C/C(C)(C)O)n1C[C@H]1CCCO1 [Example 100, N-{(3E)-5-tert-butyl-1-methyl-2-[(2R)-tetrahydrofuran-2-ylmethyl]-1,2-dihydro-3H-pyrazol-3-ylidene}-2-[(1E)-3-hydroxy-3-methylbut-1-enyl]-5-(trifluoromethyl)benzamide] | 0.0011 | 0.0032 | 
CC(C)CS(=O)(=O)Nc1ccc(C(F)(F)F)cc1C(=O)/N=c1\cc(C(C)(C)C)n(C)n1C[C@H]1CCCO1 [Example 125, N-{(3E)-5-tert-butyl-1-methyl-2-[(2R)-tetrahydrofuran-2-ylmethyl]-1,2-dihydro-3H-pyrazol-3-ylidene}-2-[(isobutylsulfonyl)amino]-5-(trifluoromethyl)benzamide] | 0.025 | 0.032 | 
